The values that follow are results of earlier work, collected in patent publication US20090169586A1, “STABLE PACKAGED DOSAGE FORM AND PROCESS THEREFOR” (priority 2006, published 2009).

Series [1] has as its system patients with long-standing non-insulin dependent diabetes mellitus (NIDDM). To be noted: 60 mg/day for 3 weeks, 20 NIDDM patients.
Series [2] concerns patients with exercise-induced asthma (EIA). Conditions: daily dose of 64 mg, 38 patients; all placebo patients showed more than 15% FEV1 reduction.
The test system of series [3] is children exposed to long-term doses of radiation. To be noted: 40 mg capsules twice daily for 3 months, 709 children.
The subject of series [4] is skin's protection against sunburn. To be noted: 24 mg taken for more than 10 weeks.

The structures appear in SMILES notation.

Take `CC1=C(/C=C/C(C)=C/C=C/C(C)=C/C=C/C=C(C)/C=C/C=C(C)/C=C/C2=C(C)CCCC2(C)C)C(C)(C)CCC1` [beta-carotene from Dunaliella, beta-carotene]: the LDL oxidation entry in series [1] is “normalised high LDL oxidation”. Further, in series [2], the “patients protected against EIA” value is listed as 53%. In series [3], the “serum markers for oxidisation” value is given as “reduced serum markers for oxidisation”. Moreover, in series [4], the “skin's protection against sunburn” value is on record as “double the skin's protection against sunburn”.
